# Test results published in ChEMBL document CHEMBL2062363, “Ligand-based design, in silico ADME-Tox filtering, synthesis and biological evaluation to discover new soluble 1,4-DHP-based CFTR activators” (Eur J Med Chem, 2012).
# Experiments:
# [1] = biological target: L-type voltage-dependent Ca2+ channel (Homo sapiens, UniProt O60840+Q01668+Q13698+Q13936); assay: Inhibition of L-type voltage-dependent Ca2+ channel at 1 uM
# [2] = Potentiation of forskolin-induced CFTR deltaF508 mutant expressed in FRT cells co-expressing halide-sensitive YFP-H148Q/I152L by fluorescence quenching assay; type: cell-based, Homo sapiens
SMILES,inhibition at 1 µM [1],pEC50 for potentiation of CFTR deltaF508 (activation potency) [2]
CCOC(=O)C1=C(C)NC(C)=C(C(=O)OC)C1c1ccc([N+](=O)[O-])cc1 (centres undefined),79.2%,–
CCOC(=O)C1=C(C)NC(C)=C(C(=O)OCC)C1c1cccc(Br)c1,100%,6.54
CCOC(=O)C1=C(C)NC(C)=C(C(=O)OCC)C1c1ccccc1,100%,6.4
CCOC(=O)C1=C(C)NC(C)=C(C(=O)OCC)C1c1cccc([N+](=O)[O-])c1,100%,–
COC(=O)C1=CNC=C(C(=O)OC)C1c1ccccc1Cl,19.7%,–
CCOC(=O)C1=C(C)N=C(C)/C(=C(/O)OCC)C1/C=C/c1ccccc1 (centres undefined),46.3%,–
CCOC(=O)C1=C(C)NC(C)=C(C(=O)OCC)C1c1c(F)c(F)c(F)c(F)c1F,100%,–
CCOC(=O)C1=C(C)N=C(C)/C(=C(/O)OCC)C1/C=C/c1ccccc1OC (centres undefined),27.6%,–
C=CCOC(=O)C1=C(C)NC(C)=C(C(=O)OCC=C)C1c1ccc(C(C)(C)C)cc1,5.9%,6.96
CCOC(=O)C1=C(C)NC(C)=C(C(=O)OCC)C1c1ccc(Cl)cc1,93.3%,–
CCOC(=O)C1=C(C)NC(C)=C(C(=O)OCC)C1c1ccc(C)cc1,29.4%,–
COC(=O)C1=C(C)N=C(C)/C(=C(/O)OC)C1/C=C/c1ccccc1 (centres undefined),18.8%,5.48
CCOC(=O)C1=C(C)N(c2ccc(OC)cc2)C(C)=C(C(=O)OCC)C1c1ccccc1,38.7%,–
COC(=O)C1=C(C)N(c2ccc(N(C)C)cc2)C(C)=C(C(=O)OC)C1c1ccc(Cl)cc1,12.9%,–
CCOC(=O)C1=C(C)NC(C)=C(C(=O)OCC)C1c1ccc(F)cc1,98.6%,5.87
CCOC(=O)C1=C(C)NC(C)=C(C(=O)OCC)C1c1cc(Cl)cc(Cl)c1OC,100%,6.51
CCOC(=O)C1=C(C)NC(C)=C(C(=O)OCC)C1c1ccc(OC)cc1OC,41.8%,6.09
COC(=O)C1=C(C)NC(C)=C(C(=O)OCCCBr)C1c1cccc([N+](=O)[O-])c1 (centres undefined),100%,6.06
CCOC(=O)C1=C(C)NC(C)=C(C(=O)OC)C1c1ccco1 (centres undefined),86.9%,5.85
COC(=O)C1=C(C)NC(C)=C(C(=O)OC)C1c1ccc(Cl)cc1Cl,100%,6.72
CCOC(=O)C1=C(C)NC(C)=C(C(=O)OC)C1c1ccc(C)o1 (centres undefined),37.6%,6.15
CCOC(=O)C1=C(C)NC(C)=C(C(=O)OC)C1c1ccccc1 (centres undefined),100%,–
COC(=O)C1=C(C)NC(C)=C(C(=O)OC)C1c1ccc(Cl)cc1,92.6%,5.96

SMILES,inhibition at 1 µM [1],pEC50 for potentiation of CFTR deltaF508 (activation potency) [2]
CCOC(=O)C1=C(C)NC(C)=C(C(=O)OC)C1c1ccc(Cl)cc1 (centres undefined),100%,6.51
COC(=O)C1=C(C)NC(C)=C(C(=O)OC)C1c1ccccc1Cl,100%,6.34
CCOC(=O)C1=C(C)NC(C)=C(C(=O)OCC)C1c1ccc(Br)cc1,27.1%,6.3
CCOC(=O)C1=C(C)NC(C)=C(C(=O)OCC)C1c1ccc(Cl)c(Cl)c1,100%,6.1
CCOC(=O)C1=C(C)NC(C)=C(C(=O)OC)C1c1ccc(Cl)c(Cl)c1 (centres undefined),100%,6.89
COC(=O)C1=C(C)NC(C)=C(C(=O)OC)C1c1ccc(OC)cc1,9.1%,6.29
COC(=O)C1=C(C)NC(C)=C(C(=O)OC)C1c1ccccc1F,95.9%,6.26
CCOc1ccc(C2C(C(=O)OC)=C(C)NC(C)=C2C(=O)OC)cc1,14.6%,5.27
COC(=O)C1=C(C)NC(C)=C(C(=O)OC)C1c1ccc(C(C)C)cc1,54.9%,6.18
COC(=O)C1=C(C)NC(C)=C(C(=O)OC)C1c1ccc(OC)c(Br)c1,32.4%,5.48
COC(=O)C1=C(C)NC(C)=C(C(=O)OC)C1c1ccc(OC)c([N+](=O)[O-])c1,15.6%,4.93
COC(=O)C1=C(C)NC(C)=C(C(=O)OC)C1c1ccc2c(c1)OCO2,37.2%,5.71
CCOC(=O)C1=C(C)NC(C)=C(C(=O)OCC)C1c1ccc(C(C)(C)C)cc1,32.1%,5.89
CC1=C(C(=O)OCc2ccccc2)C(c2ccc(O)cc2)C(C(=O)OCc2ccccc2)=C(C)N1,72.8%,5.92
CC1=C(C(=O)OCc2ccccc2)C(c2ccc(Cl)cc2)C(C(=O)OCc2ccccc2)=C(C)N1,92.9%,5.23
COCCOC(=O)C1=C(C)NC(C)=C(C(=O)OCCOC)C1c1cccc([N+](=O)[O-])c1,100%,5.93
CCOC(=O)C1=C(C)NC(C)=C(C(=O)OCC)C1c1ccc(OC)cc1,34.2%,–
COC(=O)C1=C(C)N(C)C(C)=C(C(=O)OC)C1c1ccc(Cl)c([N+](=O)[O-])c1,35.1%,5.47
COC(=O)C1=C(C)N(C)C(C)=C(C(=O)OC)C1c1cccc(Cl)c1Cl,42.2%,5.23
COC(=O)C1=C(C)N(C)C(C)=C(C(=O)OC)C1c1ccc(-c2ccccc2)cc1,23.5%,5.63
CCOC(=O)C1=C(C)NC(C)=C(C(=O)OCC)C1c1c(Cl)cccc1Cl,100%,6.52
COC(=O)C1=C(C)N(C)C(C)=C(C(=O)OC)C1c1cccc(Cl)c1,40.2%,4.89
CCOC(=O)C1=C(C)NC(C)=C(C(=O)OCC)C1c1ccc(N(CC)CC)cc1,34.7%,5.59

SMILES,inhibition at 1 µM [1],pEC50 for potentiation of CFTR deltaF508 (activation potency) [2]
COC(=O)C1=C(C)NC(C)=C(C(=O)OC)C1c1ccc(N(C)C)cc1,4.1%,–
CC1=C(C(=O)OC(C)C)C(c2ccc(Cl)cc2)C(C(=O)OC(C)C)=C(C)N1,50.5%,6.14
COc1ccc(C(=O)OC2C(C(=O)OCc3ccccc3)=C(C)NC(C)=C2C(=O)OCc2ccccc2)cc1OC,23.3%,5.41
COc1ccc(C2C(C(=O)OC(C)C)=C(C)NC(C)=C2C(=O)OC(C)C)cc1OC,22.1%,5.76
C=CCOC(=O)C1=C(C)NC(C)=C(C(=O)OCC=C)C1c1cccc(Oc2ccccc2)c1,48.2%,6.52
C=CCOC(=O)C1=C(C)NC(C)=C(C(=O)OCC=C)C1c1ccc(Cl)c(Cl)c1,87.2%,6.21
CCOC(=O)C1=C(C)NC(C)=C(C(=O)OCC)C1c1ccc(N(C)C)cc1,30.4%,6.1
CCOC(=O)C1=C(C)NC(C)=C(C(=O)OCC)C1c1ccc(OC)c(OC)c1,100%,6.21
CCOC(=O)C1=C(C)NC(C)=C(C(=O)OC)C1c1cc(Cl)cc(Cl)c1OC (centres undefined),100%,6.62
CCOC(=O)C1=C(C)NC(C)=C(C(=O)OCC)C1c1ccc(OCC)cc1,58.7%,6.29
COC(=O)C1=C(C)NC(C)=C(C(=O)OC)C1c1cccc(Br)c1,100%,6.46
COC(=O)C1=C(C)NC(C)=C(C(=O)OC)C1c1ccc(Cl)c(Cl)c1,100%,5.77
CCOC(=O)C1=C(C)NC(C)=C(C(=O)OCC)C1c1ccccc1Cl,100%,6.59
CCc1ccc(C2C(C(=O)OC)=C(C)NC(C)=C2C(=O)OC)cc1,37.4%,6.14
CCOc1ccc(C2C(C(=O)OC)=C(C)NC(C)=C2C(=O)OC)cc1OC,22.6%,5.62
CCOC(=O)C1=C(C)NC(C)=C(C(=O)OCC)C1c1ccc(O)c(OCC)c1,22.8%,5.35
COc1cc(C2C(C(=O)OCc3ccccc3)=C(C)NC(C)=C2C(=O)OCc2ccccc2)ccc1O,44.9%,5.28
COC(=O)C1=C(C)N(C)C(C)=C(C(=O)OC)C1c1ccccc1Cl,50.6%,5.44
COC(=O)C1=C(C)N(C)C(C)=C(C(=O)OC)C1c1ccc(Cl)c(Cl)c1,45.6%,4.89
COC(=O)C1=C(C)N=C(C)/C(=C(/O)OC)C1c1c(F)cccc1Cl (centres undefined),100%,6.8
COC(=O)C1=C(C)N=C(C)/C(=C(/O)OC)C1c1cccc(Cl)c1 (centres undefined),100%,6.22
COC(=O)C1=CNC=C(C(=O)OC)C1c1ccc(Cl)c(Cl)c1,17.1%,5.7
CCOC(=O)C1=C(C)NC(C)=C(C(=O)OC)C1c1cccc([N+](=O)[O-])c1 (centres undefined) [NITRENDIPINE],100%,–
